Molecular target: T1, human TLR8 (Homo sapiens, UniProt Q9NR97)
T1 construct: host or cells: HEK293 (HEK-Blue hTLR8)
T1 sequence (Q9NR97 27-1041): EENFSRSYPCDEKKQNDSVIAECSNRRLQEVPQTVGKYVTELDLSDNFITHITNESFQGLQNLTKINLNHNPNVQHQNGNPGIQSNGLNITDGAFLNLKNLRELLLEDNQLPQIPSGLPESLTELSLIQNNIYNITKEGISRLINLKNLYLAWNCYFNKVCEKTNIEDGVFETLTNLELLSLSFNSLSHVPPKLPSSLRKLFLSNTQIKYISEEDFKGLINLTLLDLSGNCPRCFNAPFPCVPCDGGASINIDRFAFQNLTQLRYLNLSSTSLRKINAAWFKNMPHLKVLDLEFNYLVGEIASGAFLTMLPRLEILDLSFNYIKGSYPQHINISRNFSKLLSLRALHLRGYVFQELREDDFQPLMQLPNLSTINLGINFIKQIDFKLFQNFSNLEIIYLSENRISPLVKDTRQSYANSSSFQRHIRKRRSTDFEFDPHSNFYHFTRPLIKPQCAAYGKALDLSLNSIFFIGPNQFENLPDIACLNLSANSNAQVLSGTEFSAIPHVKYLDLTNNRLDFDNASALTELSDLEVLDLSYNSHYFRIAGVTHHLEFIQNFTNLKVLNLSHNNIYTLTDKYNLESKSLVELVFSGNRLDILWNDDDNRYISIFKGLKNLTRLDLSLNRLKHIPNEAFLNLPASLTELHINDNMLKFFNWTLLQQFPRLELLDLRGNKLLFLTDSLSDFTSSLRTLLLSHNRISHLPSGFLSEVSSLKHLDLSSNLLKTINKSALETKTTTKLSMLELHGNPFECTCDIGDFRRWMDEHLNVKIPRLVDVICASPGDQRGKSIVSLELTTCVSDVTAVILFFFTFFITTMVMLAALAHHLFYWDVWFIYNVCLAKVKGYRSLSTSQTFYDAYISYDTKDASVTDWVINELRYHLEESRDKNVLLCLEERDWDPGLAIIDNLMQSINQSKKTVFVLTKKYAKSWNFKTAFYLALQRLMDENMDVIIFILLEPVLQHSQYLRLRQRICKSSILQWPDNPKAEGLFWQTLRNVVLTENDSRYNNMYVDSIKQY
Assay: HEK293-Blue-hTLR-8 cells assay
Type: cell-based
Conditions: HEK293-Blue-hTLR8 cells, R848 stimulation, 20 hrs, SEAP reporter; read-out: HEK/hTLR8 IC50
Excerpt: A stable HEK293-Blue-hTLR-8 cell line was purchased from InvivoGen (Cat. #: hkb-htlr8, San Diego, California, USA). These cells were originally designed for studying the stimulation of human TLR8 by monitoring the activation of NF-κB. A SEAP (secreted embryonic alkaline phosphatase) reporter gene was placed under the control of the IFN-β minimal promoter fused to five NF-κB and AP-1-binding sites. The SEAP was induced by activating NF-κB and AP-1 via stimulating HEK-Blue hTLR8 cells with TLR8 ligands. Therefore the reporter expression was declined by TLR8 antagonist under the stimulation of a ligand, such as R848, for incubation of 20 hrs. The cell culture supernatant SEAP reporter activity was determined using QUANTI-Blue™ kit (Cat. #: rep-qb1, Invivogen, San Diego, Ca, USA) at a wavelength of 640 nm, a detection medium that turns purple or blue in the presence of alkaline phosphatase.
HEK293-Blue-hTLR8 cells were incubated at a density of 250,000˜450,000 cells/mL in a volume of 170 μL in a 96-well plate in Dulbecco's Modified Eagle's medium (DMEM) containing 4.5 g/L glucose, 50 U/mL penicillin, […], […], 2 mM L-glutamine, 10% (v/v) heat-inactivated fetal bovine serum with addition of 20 μL test compound in a serial dilution in the presence of final DMSO at 1% and 10 μL of 60 uM R848 in above DMEM, perform incubation under 37° C. in a CO2 incubator for 20 hrs. Then 20 μL of the supernatant from each well was incubated with 180 μL Quanti-blue substrate solution at 37° C. for 2 hrs and the absorbance was read at 620˜655 nm using a spectrophotometer. The signaling pathway that TLR8 activation leads to downstream NF-κB activation has been widely accepted, and therefore similar reporter assay was modified for evaluating TLR8 antagonist.

IC50 [µM]	Compound
0.04	[2H]c1ccc2c(N3C[C@@H]4C[C@H](Nc5ccc(C[C@H]6CNCCO6)cc5)CCN4[C@H](C)C3)ccc(C#N)c2n1 [Example 34, 5-[(4R,8R,9aS)-4-methyl-8-[4-[[(2S)-morpholin-2-yl]methyl]anilino]-1,3,4,6,7,8,9,9a-octahydropyrido[1,2-a]pyrazin-2-yl]-2-deuterio-quinoline-8-carbonitrile]
0.018	[2H]c1ccc2c(N3C[C@@H]4C[C@@H](N5CC(c6ccc(N7C[C@@H](N)[C@H](OC)C7)cc6)C5)CCN4[C@H](C)C3)ccc(C#N)c2n1 [Example 36]
0.116	[2H]c1ccc2c(N3C[C@@H]4C[C@H](N5CCN(c6ccncc6)CC5)CCN4[C@H](C)C3)ccc(C#N)c2n1 [Example 37, 5-[(4R,8R,9aS)-4-methyl-8-[4-(4-pyridyl)piperazin-1-yl]-1,3,4,6,7,8,9,9a-octahydropyrido[1,2-a]pyrazin-2-yl]-2-deuterio-quinoline-8-carbonitrile]

— US12421229B2, “Hydropyrido[1,2-α]pyrazine compounds for the treatment of autoimmune disease” (Hoffmann-La Roche Inc., priority 2019, dated 2025)
